Key:
[1] = after 24 months treatment; cited from earlier work
[2] = tested on: MMP1 expression by SFs; assay: MMP assay proof of principle: MMP1 produced by complex trigger activated SFs; assay type: cell-based; settings: 48 hrs, read-out: IC50, reduction of MMP1 expression by SFs
Protocol: A 384-well format ELISA for measurement of MMP1 is developed. Various primary antibodies are tested, as well as various ELISA protocols. The following protocol is developed and validated to measure MMP1 levels in SF supernatant in 384 well plates: white Lumitrac 600 384 well plates (Greiner) are coated with 2 μg/mL anti-MMP1 antibody MAB1346 (Chemicon). The antibody is diluted in buffer 40 (1.21 g Tris base (Sigma), 0.58 g NaCl (Calbiochem) and 5 mL 10% NaN3 (Sigma) in 1 L milliQ water and adjusted to pH 8.5). After overnight incubation at 4° C., plates are washed with PBS (80 g NaCl, 2g KCl (Sigma), 11.5 g Na2HPO4.7H2O and 2 g KH2PO4 in 10 L milliQ; pH 7.4) and blocked with 100 μL/well Casein buffer (2% Casein (VWR International) in PBS). Next day, casein buffer is removed from ELISA plates and replaced by 50 μL/well EC buffer (4 g casein, 2.13 g Na2HPO4 (Sigma), 2 g bovine albumin (Sigma), 0.69 g NaH2PO4.H2O (Sigma), 0.5 g CHAPS (Roche), 23.3 g NaCl, 4 mL 0.5 M EDTA pH 8 (Invitrogen), 5 mL 10% NaN3 in 1 L milliQ and adjusted to pH 7.0). 0.25 mM DTT (Sigma) is added to the thawed samples plates. After removal of the EC buffer, 20 μL of sample is transferred to the ELISA plates. […] Readout is performed on the Luminoscan Ascent Luminometer (Labsystems) with an integration time of 200 msec or with an Envision reader (Perkin Elmer). […]

IC50 [2] [nM]	SMILES	patients achieving an ACR50 score [1] [%]
–	CN(Cc1cnc2nc(N)nc(N)c2n1)c1ccc(C(=O)N[C@@H](CCC(=O)O)C(=O)O)cc1 [methotrexate]	30
~1	C[C@@H]1C[C@H]2[C@@H]3CCC4=CC(=O)C=C[C@]4(C)[C@@]3(F)[C@@H](O)C[C@]2(C)[C@@]1(O)C(=O)CO [dexamethasone]	–
